In patent EP4775580A1, “COMPOUND, PHARMACEUTICAL COMPOSITION COMPRISING SAME, AND USE THEREOF” (Euregen Biopharma Co., Ltd., priority 2023, dated 2025):
Like-named read-outs stand apart in the source and are kept apart here.

Legend:
[1] = biological target: T1, wild-type Menin protein (Menin-WT) (Homo sapiens, UniProt O00255); test: Fluorescence polarization assay of Menin binding to MLL peptide, wild type; conditions: FP, 8 nM Menin, 4 nM MLL peptide
T1 sequence (O00255 1-615 isoform O00255-1): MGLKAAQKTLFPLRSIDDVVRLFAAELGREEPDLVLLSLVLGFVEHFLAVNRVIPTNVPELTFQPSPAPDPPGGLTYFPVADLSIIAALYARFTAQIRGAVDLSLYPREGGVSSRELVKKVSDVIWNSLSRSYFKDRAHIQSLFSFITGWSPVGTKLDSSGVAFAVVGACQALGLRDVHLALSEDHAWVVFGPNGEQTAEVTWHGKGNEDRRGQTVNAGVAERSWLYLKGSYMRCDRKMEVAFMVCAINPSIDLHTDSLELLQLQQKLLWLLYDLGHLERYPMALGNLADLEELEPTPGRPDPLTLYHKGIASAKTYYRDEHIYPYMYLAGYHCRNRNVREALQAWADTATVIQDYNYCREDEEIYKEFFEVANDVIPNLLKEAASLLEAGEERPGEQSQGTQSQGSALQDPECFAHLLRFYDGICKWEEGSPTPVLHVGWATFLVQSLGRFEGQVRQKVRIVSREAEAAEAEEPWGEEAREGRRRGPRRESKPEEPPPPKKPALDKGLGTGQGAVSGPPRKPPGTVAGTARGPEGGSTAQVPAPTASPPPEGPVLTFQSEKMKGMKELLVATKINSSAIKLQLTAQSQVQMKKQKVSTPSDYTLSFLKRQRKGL
Excerpt: • 1. Objective: To evaluate the inhibitory activity of compounds against wild-type Menin protein (Menin-WT) and its mutant variants (Menin-M327V, Menin-M327I, Menin-T349M, Menin-S160T, Menin-S160C, Menin-G331R, and Menin-G331D). • 2. Experimental Principle: The experiment employed fluorescence polarization (FP) to detect the binding of wild-type Menin protein and its mutant variants to MLL peptide. In the absence of inhibitors, binding of wild-type Menin protein and its mutant variants to MLL peptide generates a high FP signal; upon addition of inhibitors, the binding between Menin proteins and MLL peptide is disrupted, resulting in a low FP signal. • 3. Experimental Materials: Final concentration of wild-type Menin protein and its mutant variants: 8 nM; final concentration of MLL peptide: 4 nM. Assay buffer: 50 mM Tris-HCl (pH 8.0), 120 mM NaCl, 0.005% CA-630, 2 mM DTT. • 4. […] The plate was centrifuged at 1000 rpm for 60 seconds. Subsequently, 10 µL of MLL peptide was added to each assay well. The plate was centrifuged at 1000 rpm for 60 seconds and sealed with a sealing membrane. After incubation at 23°C for 60 minutes, the plate was read using a PerkinElmer Envision reader. Data Analysis: [formula]
Curve fitting: XLFIT software was used for curve fitting, employing a four-parameter logistic model with percent inhibition versus log(compound concentration) as variables.

hERG potassium channel = biological target: T2, hERG potassium channel (Homo sapiens, UniProt Q12809); test: Inhibition of hERG current, manual whole-cell patch-clamp in HEK293 cells stably transfected with hERG; type: cell-based
T2 construct: expressed in transfected cells; host or cells: HEK293 (HEK-293-hERG)
T2 sequence (Q12809 whole entry): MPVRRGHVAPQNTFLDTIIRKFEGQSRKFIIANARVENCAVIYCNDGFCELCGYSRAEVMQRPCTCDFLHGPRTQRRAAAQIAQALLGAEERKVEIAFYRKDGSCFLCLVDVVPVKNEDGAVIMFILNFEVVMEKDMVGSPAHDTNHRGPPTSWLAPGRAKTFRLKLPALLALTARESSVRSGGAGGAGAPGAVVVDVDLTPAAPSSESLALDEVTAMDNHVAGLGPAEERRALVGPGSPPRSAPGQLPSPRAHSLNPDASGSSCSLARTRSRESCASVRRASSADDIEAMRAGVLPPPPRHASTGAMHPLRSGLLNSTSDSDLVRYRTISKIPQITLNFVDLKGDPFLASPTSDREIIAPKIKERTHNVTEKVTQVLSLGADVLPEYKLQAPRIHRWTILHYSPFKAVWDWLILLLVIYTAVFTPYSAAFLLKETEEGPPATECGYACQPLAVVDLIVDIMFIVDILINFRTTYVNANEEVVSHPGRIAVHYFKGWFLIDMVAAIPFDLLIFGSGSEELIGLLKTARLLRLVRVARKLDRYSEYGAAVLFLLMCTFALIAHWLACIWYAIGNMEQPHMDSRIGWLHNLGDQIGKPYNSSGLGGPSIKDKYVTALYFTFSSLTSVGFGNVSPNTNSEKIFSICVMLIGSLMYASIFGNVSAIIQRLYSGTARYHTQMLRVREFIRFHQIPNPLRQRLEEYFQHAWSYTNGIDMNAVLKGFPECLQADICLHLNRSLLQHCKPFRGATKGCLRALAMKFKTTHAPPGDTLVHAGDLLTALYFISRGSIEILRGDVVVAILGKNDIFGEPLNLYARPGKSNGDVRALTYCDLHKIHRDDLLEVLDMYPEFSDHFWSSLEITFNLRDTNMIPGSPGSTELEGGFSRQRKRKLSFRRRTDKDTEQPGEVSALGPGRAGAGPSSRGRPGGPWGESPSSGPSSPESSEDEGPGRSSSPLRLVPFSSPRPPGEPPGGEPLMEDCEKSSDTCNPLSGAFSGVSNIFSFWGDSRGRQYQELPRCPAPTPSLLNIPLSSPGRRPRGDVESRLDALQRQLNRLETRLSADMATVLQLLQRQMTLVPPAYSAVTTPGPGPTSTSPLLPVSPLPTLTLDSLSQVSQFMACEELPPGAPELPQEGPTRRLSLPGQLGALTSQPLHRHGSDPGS
Excerpt: • 1. Objective: To evaluate the inhibitory effect of test compounds on hERG current in HEK293 cells stably transfected with the hERG potassium channel using manual patch-clamp technique. • 2. Experimental Materials: The test compound was Compound 3 prepared according to the examples of the present invention; the positive control compound SNDX-5613 was purchased from Chengdu Zhihui Zhongxin Biomedical Co., Ltd.; HEK293 cells were obtained from Procell (Cat. #CL-0001). […]
Following establishment of the whole-cell recording configuration, the holding potential was maintained at -80 mV. […] Once the recorded hERG current stabilized, compounds were administered via continuous extracellular perfusion from low to high concentrations (0.3, 1, 3, 10, and 30 µmol/L). […]
Data Acquisition and Analysis: Experimental data were acquired using Clampex software and analyzed using Clampfit software. First, the current following each compound concentration was normalized to the control current ((Peak tail current (compound))/(Peak tail current (blank))) × 100 [formula] , then the inhibition rate for each compound concentration was calculated (1−(Peak tail current (compound))/(Peak tail current (blank))) × 100 [formula] . […]

Structure (SMILES): CCN(C(=O)c1cc(F)ccc1N1CCN([C@@H]2CCN([C@H](CCCN(C)CCOC)C(C)C)C2)c2ncncc21)C(C)C [Example 3]
- IC50 [1]: 0.013 µM
- IC50 (hERG potassium channel): > 30 µM

Structure (SMILES): CCN(C(=O)c1cc(F)ccc1Oc1cncnc1N1CC2(CCN(C[C@H]3CC[C@H](NS(=O)(=O)CC)CC3)CC2)C1)C(C)C [SNDX-5613, revumenib]
- IC50 [1]: 0.0176 µM
- IC50 (hERG potassium channel; HEK293-hERG cells, manual patch-clamp, 0.3-30 µmol/L, room temperature, read-out: IC50 (hERG tail current)): 7.59 µM
